According to patent publication US11649237B2, “Substituted imidazo[1,5-a]pyrazines for IRE1 inhibition” (Optikira LLC, priority 2017, dated 2023):

system: XBP-1 splicing in ARPE-19 cells or apoptosis of INS-1 cells expressing mIRE-1; test: Cellular assay (XBP1 splicing assay or apoptosis assay); format: cell-based; details: data are for the XBP1 splicing assay or the apoptosis assay (not specified per compound)
Procedure: ARPE-19 cells stably expressing XBP-1 (a.a. 1-376) with nano-luciferase gene sequence linked so it is in frame when XBP-1 is spliced, were cultured in F12 media, 10% FBS, 0.044% sodium bicarbonate, 150 μg/ml hygromycin B and seeded for assays at 5,000 cells in 384 well plates in culture media without hygromycin B and incubated at 37° C./5% CO2. […] After further incubation of 30 minutes thapsigargin was added (final concentration 150 nM) and then another 4 hour incubation. A NanoLuc luciferase assay (Promega) was used according to the manufacturer's instructions to detect the luciferase and luminescence measured on a luminometer (EnVision, PerkinElmer).
Doxycycline (final concentration 100 nM) was added and plates incubated for a further 72 hours. To determine the proportion of apoptotic cells Hoechst 33342 (final concentration 10 μg/mL) was added, then after 30 minutes incubation cells imaged and analyzed on an InCell high content imager.

Question: CNC1CC=C(c2cnc(N)c3c(-c4ccc(NC(=O)Nc5ccccc5)c5ccccc45)nc(C(C)C)n23)CC1 (centres unmarked) [Example 121, 1-(4-(8-Amino-3-isopropyl-5-(4-(methylamino)cyclohex-1-en-1-yl)imidazo[1,5-a]pyrazin-1-yl)naphthalen-1-yl)-3-phenylurea] was tested. Which IC50 did it give?
Answer: The IC50 was 89 nM.

Question: CNC1CC=C(c2cnc(N)c3c(-c4cccc5c(NC(=O)Nc6cccc(F)c6)cccc45)nc(C(C)C)n23)CC1 (centres unmarked) [Example 123, 1-(5-(8-amino-3-isopropyl-5-(4-(methylamino)cyclohex-1-en-1-yl)imidazo[1,5-a]pyrazin-1-yl)naphthalen-1-yl)-3-(3-fluorophenyl)urea] was tested. Which IC50 did it give?
Answer: The IC50 was 230 nM.

Question: Which IC50 does the source give for CNC1CC=C(c2cnc(N)c3c(-c4cccc5c(NC(=O)Nc6cccc(C(F)(F)F)c6)cccc45)nc(C(C)C)n23)CC1 (centres unmarked) [Example 124, 1-(5-(8-amino-3-isopropyl-5-(4-(methylamino)cyclohex-1-en-1-yl)imidazo[1,5-a]pyrazin-1-yl)naphthalen-1-yl)-3-(3-(trifluoromethyl)phenyl)urea] here?
Answer: The IC50 was 430 nM.

Question: How did the IC50 turn out when CNC1CC=C(c2cnc(N)c3c(-c4ccc(NC(=O)Nc5ccc6c(c5)OCCO6)cc4F)nc(C(C)C)n23)CC1 (centres unmarked) [Example 125, 1-(4-(8-amino-3-isopropyl-5-(4-(methylamino)cyclohex-1-en-1-yl)imidazo[1,5-a]pyrazin-1-yl)-3-fluorophenyl)-3-(2,3-dihydrobenzo[b][1,4]dioxin-6-yl)urea] was run?
Answer: The IC50 was 300 nM.

Question: CCc1nc(-c2ccc(NC(=O)Nc3cccc(F)c3)cc2F)c2c(N)ncc(C3=CCC(NC)CC3)n12 (centres unmarked) [Example 126, 1-(4-(8-amino-3-ethyl-5-(4-(methylamino)cyclohex-1-en-1-yl)imidazo[1,5-a]pyrazin-1-yl)-3-fluorophenyl)-3-(3-fluorophenyl)urea] was tested. Which IC50 did it give?
Answer: Its IC50 is 450 nM.

Question: How did the IC50 turn out when CNC1CC=C(c2cnc(N)c3c(-c4ccc(NC(=O)Nc5cccc(F)c5)cc4F)nc(C(C)C)n23)CC1 (centres unmarked) [Example 129, 1-(4-(8-amino-3-isopropyl-5-(4-(methylamino)cyclohex-1-en-1-yl)imidazo[1,5-a]pyrazin-1-yl)-3-fluorophenyl)-3-(3-fluorophenyl)urea] was run?
Answer: The IC50 was 280 nM.

Question: Which IC50 does the source give for CNC1CC=C(c2cnc(N)c3c(-c4ccc(NC(=O)Nc5ccccc5)cc4F)nc(C(C)C)n23)CC1 (centres unmarked) [Example 130, 1-(4-(8-amino-3-isopropyl-5-(4-(methylamino)cyclohex-1-en-1-yl)imidazo[1,5-a]pyrazin-1-yl)-3-fluorophenyl)-3-phenylurea] here?
Answer: Its IC50 is 410 nM.

Question: CNC1CC=C(c2cnc(N)c3c(-c4ccc(NC(=O)NCc5ccccc5)c5ccccc45)nc(C(C)C)n23)CC1 (centres unmarked) [Example 139, 1-(4-(8-amino-3-isopropyl-5-(4-(methylamino)cyclohex-1-en-1-yl)imidazo[1,5-a]pyrazin-1-yl)naphthalen-1-yl)-3-benzylurea] was tested. Which IC50 did it give?
Answer: Its IC50 is 380 nM.

Question: For CNC1CC=C(c2cnc(N)c3c(-c4ccc(NC(=O)Nc5ccc6c(c5)OCCO6)c5ccccc45)nc(C(C)C)n23)CC1 (centres unmarked) [Example 140, 1-(4-(8-amino-3-isopropyl-5-(4-(methylamino)cyclohex-1-en-1-yl)imidazo[1,5-a]pyrazin-1-yl)naphthalen-1-yl)-3-(2,3-dihydrobenzo[b][1,4]dioxin-6-yl)urea], which IC50 is on record?
Answer: Its IC50 is 78 nM.

Question: Which IC50 does the source give for CNC1CC=C(c2cnc(N)c3c(-c4ccc(NC(=O)Nc5cccc(OC)c5)c5ccccc45)nc(C(C)C)n23)CC1 (centres unmarked) [Example 141, 1-(4-(8-amino-3-isopropyl-5-(4-(methylamino)cyclohex-1-en-1-yl)imidazo[1,5-a]pyrazin-1-yl)naphthalen-1-yl)-3-(3-methoxyphenyl)urea] here?
Answer: The IC50 was 59 nM.

Question: CNC1CC=C(c2cnc(N)c3c(-c4ccc(NC(=O)Nc5cccc(C#N)c5)c5ccccc45)nc(C(C)C)n23)CC1 (centres unmarked) [Example 142, 1-(4-(8-amino-3-isopropyl-5-(4-(methylamino)cyclohex-1-en-1-yl)imidazo[1,5-a]pyrazin-1-yl)naphthalen-1-yl)-3-(3-cyanophenyl)urea] was tested. Which IC50 did it give?
Answer: The IC50 was 94 nM.
